Experimental data published in patent US20240052109A1, “POLYSILOXANE VINYLIC MONOMERS AND USES THEREOF” (Alcon Inc., priority 2022, published 2024).

Experiment: Solubility of PDMS vinylic monomer in 1-PrOH:Water mixtures
Assay type: physicochemical
Conditions: 50-60 mg sample, stirred at room temperature
Protocol: The solubility of quaternium ammonium containing PDMS vinylic monomer prepared in Example 2 is evaluated in 1-PrOH:Water mixtures. Typically, 50-60 mg of the sample is combined with a selected solvent system and it is stirred/agitated at room temperature. After few minutes compatibility is evaluated. For comparison, the solubilities of three reference materials are also evaluated. The three reference material are: methacryloxypropyl- and n-butyl-terminated polydimiethylsiloxane (D6, Mn=700-800 g/mol) (Ref. 1); methacryloxypropyl- and n-butyl-terminated polydimiethylsiloxane (D9, Mn=900-1,000 g/mol) (Ref. 2); and methyl- and 2-[4-(chloromethyl)phenyl]ethyl-terminated polydimethylsiloxane (Ref. 3).

Molecule | Solubility (compatibility) in 1-PrOH:Water (1-PrOH:Water 0:100) | Solubility (compatibility) in 1-PrOH:Water (1-PrOH:Water 20:80) | Solubility (compatibility) in 1-PrOH:Water (1-PrOH:Water 40:60) | Solubility (compatibility) in 1-PrOH:Water (1-PrOH:Water 60:40) | Solubility (compatibility) in 1-PrOH:Water (1-PrOH:Water 80:20) | Solubility (compatibility) in 1-PrOH:Water (1-PrOH:Water 100:0)
C=CC(=O)NCCC[N+](C)(C)Cc1ccc(CC[Si](C)(C)O[Si](C)(C)O[Si](C)(C)O[Si](C)(C)O[Si](C)(C)C)cc1 [Example 2] | Hazy | Hazy | Clear | Clear | Clear | Clear
methacryloxypropyl- and n-butyl-terminated polydimiethylsiloxane [Ref. 1] | Hazy | Hazy | Hazy | Hazy | Clear | Clear
methacryloxypropyl- and n-butyl-terminated polydimiethylsiloxane [Ref. 2] | Hazy | Hazy | Hazy | Hazy | Hazy | Clear
methyl- and 2-[4-(chloromethyl)phenyl]ethyl-terminated polydimethylsiloxane [Ref. 3] | Hazy | Hazy | Hazy | Hazy | Clear | Clear
